The subject of one data set is HapR. Kind of data set: Western blot analysis of HapR production. The format is cell-based, Vibrio cholerae. The text has this: (§1) In vivo, HapR is a transcription factor that functions as one of two master QS regulators in V. cholerae. Agonism of CqsS leads to increased production of HapR and HapR, in turn, drives the high-cell density gene expression program, which leads to repression of the expression of genes required for virulence and biofilm formation. […] Conversely, production the major V. cholerae virulence factor, TcpA, (toxin-co-regulated pilis protein subunit A), is repressed by both CAI-1 and compound 18.
(§2) Overnight cultures of V. cholerae CqsA-LuxQ—were diluted 1000-fold in AKI medium containing the indicated compounds. The cultures were grown under static conditions at 37° C. for 4 h and then were shaken for 18 h at 37° C. Cells were collected by centrifugation, TcpA and HapR from different samples were analyzed by Western Blot as described in references.
In general terms: A western blot detects proteins with antibodies after separation by electrophoresis.

In the next data set the test system is TcpA. Kind of data set: Western blot analysis of TcpA production. In kind it is cell-based, Vibrio cholerae. The following applies: FIG. 3, DMSO control.
From the text: as §1, §2

The target in data set [1] is V. cholerae CqsS receptor (Vibrio cholerae serotype O1, UniProt Q9KM66). Kind of data set: CqsS agonist bioassay (V. cholerae reporter strain MM920, bioluminescence). As to conditions: for EC50: mean of triplicate analyses; for QS agonist potency (in words) / level of QS activation (in words): CqsS agonist bioassay.
From the text: The molecules were bioassayed in a system that exploits the V. cholerae quorum sensing circuit. The bioassay used a bacterial reporter strain to measure the QS response. Values for percent of activation correspond to the level of bioluminescence produced in the bacterial reporter strain at saturating concentrations of molecule compared to the maximal levels produced in the presence of a native autoinducer molecule (Ea-CAI-1). […] The EC50 values correspond to the concentrations that are required to activate quorum sensing to its half-maximal level.
DMSO was used as the negative control.
EC50 values were calculated by Prism 5 using standard settings and are described in the Tables and text with the error representing the 95% confidence interval for the calculated EC50 value.
The values for % response described in the Tables and text describe the maximal luminescence change for each of the analogs as a percent of EaCAI-1 or 18 (set at 100%). One of these molecules was included as a positive standard of activity for each of the assays.
Data set [2] deals with Vibrio cholerae strain MM920. As to the kind of experiment: Cytotoxicity of compound 18 in V. cholerae as assessed by OD600. The following applies: FIG. 9, OD600.
The mark [3] stands for this setting: EC50, QS agonist activity, reporter strain MM920, 4-hour incubation at 30° C.
The mark [4] stands for this setting: EC50, complete bioassay data, error = 95% confidence interval.
Setting [5] is: read-out: % Response, Percent maximal bioluminescence with respect to Ea-CAI-1, which is set at 100%.
The mark [6] stands for this setting: read-out: % Response, complete bioassay data, percent maximal bioluminescence with respect to Ea-CAI-1 (100%), error = 95% confidence interval.

SMILES strings stand for the structures. Read-outs that look alike come from different tables or passages of the source.

V. cholerae CqsS receptor, sequence (Q9KM66 whole entry, looked up): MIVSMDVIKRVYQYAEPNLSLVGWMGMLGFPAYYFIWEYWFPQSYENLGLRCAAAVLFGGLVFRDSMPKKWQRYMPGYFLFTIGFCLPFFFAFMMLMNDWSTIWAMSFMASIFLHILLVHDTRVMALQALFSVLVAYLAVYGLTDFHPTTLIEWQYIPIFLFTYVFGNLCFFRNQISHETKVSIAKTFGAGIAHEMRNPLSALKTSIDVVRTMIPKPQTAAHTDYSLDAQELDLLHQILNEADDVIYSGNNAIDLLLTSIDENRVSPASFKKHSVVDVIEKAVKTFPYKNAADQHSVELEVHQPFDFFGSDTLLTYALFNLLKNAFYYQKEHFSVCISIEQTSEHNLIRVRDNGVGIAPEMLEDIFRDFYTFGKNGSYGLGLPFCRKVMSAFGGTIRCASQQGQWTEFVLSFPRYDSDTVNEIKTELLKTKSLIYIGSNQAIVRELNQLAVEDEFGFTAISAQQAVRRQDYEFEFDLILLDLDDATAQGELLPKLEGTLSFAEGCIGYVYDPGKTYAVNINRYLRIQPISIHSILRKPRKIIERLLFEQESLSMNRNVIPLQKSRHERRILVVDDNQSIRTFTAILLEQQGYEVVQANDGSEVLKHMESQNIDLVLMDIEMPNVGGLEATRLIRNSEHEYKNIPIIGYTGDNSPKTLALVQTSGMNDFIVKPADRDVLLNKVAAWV

As to `CCCCCCCCCC(=O)[C@@H](O)CC` [CAI-1, (S)-3-hydroxytridecan-4-one], the “production of HapR” value in the data set with HapR (10 μM of CAI-1, FIG. 3, DMSO control) is recorded as “activate production of HapR”. For the same compound, the “production of virulence factor TcpA” value in the data set on TcpA is “repressed”.

A word on the EC50: it is the midpoint of the concentration-response curve. Take `C/C=C(\N)C(=O)CCCCC` [Compound 6, (Z)-3-aminonon-2-en-4-one]: the EC50 in data set [1] (setting [3]) came to 590 nM; in data set [1] (setting [4]) it was 594 ± 319 nM. In addition, the results for the Emax in data set [1] (setting [5]) and in data set [1] (setting [6]) were 100% and 100 ± 57%, respectively.

For the compound `C/C=C(\N)C(=O)CCCCCCC` [Compound 8, (Z)-3-aminoundec-2-en-4-one], the results for the Emax in data set [1] (setting [5]) and in data set [1] (setting [6]) were 109% and 109 ± 25%, respectively.

On to `C/C=C(\N)C(=O)CCCCCCCC` [Compound 9, (Z)-3-aminododec-2-en-4-one], for which the “QS agonist potency (in words)” value in data set [1] is on record as “low nM activity”. Also, the “level of QS activation (in words)” value in data set [1] is given as “full activation”. For the same compound, the EC50 was found to be 2.6 nM in data set [1] (setting [3]) and 2.6 ± 0.32 nM in data set [1] (setting [4]). In addition, the values for the Emax in data set [1] (setting [5]) and in data set [1] (setting [6]) were 112% and 112 ± 7%, respectively.

Turning to `C/C=C(\N)C(=O)CCCCCCCCCCCC` [Compound 11, (Z)-3-aminohexadec-2-en-4-one], the “QS agonist potency (in words)” value in data set [1] is reported as “much less active”. The results for the EC50 in data set [1] (setting [3]) and in data set [1] (setting [4]) were over 225000 nM and over 5000 nM, respectively. In addition, the Emax in data set [1] (setting [5]) and in data set [1] (setting [6]) was 38% in each case.

Take `CCCCCCCCCC(=O)c1ccc[nH]1` [Compound 17, 1-(1H-pyrrol-2-yl)decan-1-one]: the “level of QS activation (in words)” value in data set [1] is “full level of QS response”. The compound further showed an EC50 in data set [1] (setting [4]) of 5170 nM. Further, the Emax in data set [1] (setting [6]) was 103 ± 91%.

For `CCCCCCCCCC(=O)c1cc[nH]c1` [Compound 18, 1-(1H-pyrrol-3-yl)decan-1-one], the “production of HapR” value with HapR (1 μM of 18, FIG. 3, DMSO control) is recorded as “increased”. Besides, the “production of virulence factor TcpA” value with TcpA is “repressed”. Also, in data set [2], the “effect on bacterial growth (in words)” value is on record as “does not inhibit bacterial growth”.

Regarding `CCCCCCCCCC(=O)c1cc(C)[nH]c1C` [Compound 19, 1-(2,5-dimethyl-1H-pyrrol-3-yl)decan-1-one], the “QS agonist potency (in words)” value in data set [1] is recorded as “lower agonist activity”. In addition, in data set [1] (setting [4]), the response was half-maximal at 679 ± 92 nM (EC50). In data set [1] (setting [6]), the Emax came out at 66 ± 14%.

For the compound `CCCCCCCCCC(=O)c1c(C)c[nH]c1C` [Compound 20, 1(2,4-dimethyl-1H-pyrrol-3-yl)decan-1-one], the “QS agonist potency (in words)” value in data set [1] was “lower agonist activity”. The same compound showed an EC50 in data set [1] (setting [4]) of 536 ± 80 nM. Besides, in data set [1] (setting [6]), the Emax was 65 ± 16%.

In turn, `CCCCc1ccc(CCC(=O)c2cc[nH]c2)cc1` [Compound 26, 3-(4-butylphenyl)-1-(1H-pyrrol-3-yl)propan-1-one] displayed a concentration giving a half-maximal response (EC50) in data set [1] (setting [4]) of 10.9 ± 4.8 nM. Moreover, the Emax in data set [1] (setting [6]) is 64 ± 42%.

With `CCCCc1ccc(CCC(=O)c2ccc[nH]2)cc1` [Compound 27, 3-(4-butylphenyl)-1-(1H-pyrrol-2-yl)propan-1-one], the EC50 in data set [1] (setting [4]) was 2020 ± 1680 nM. Moreover, the Emax in data set [1] (setting [6]) is 75 ± 45%.

On to `O=C(CCCCCCc1ccccc1)c1cc[nH]c1` [Compound 28, 7-phenyl-1-(1H-pyrrol-3-yl)heptan-1-one], for which, in data set [1] (setting [4]), the EC50 is 35.8 ± 6.1 nM. For the same compound, in data set [1] (setting [6]), the Emax came out at 75 ± 10%.

In data set [1] (setting [4]), `O=C(CCCCCCc1ccccc1)c1ccc[nH]1` [Compound 29, 7-phenyl-1-(1H-pyrrol-2-yl)heptan-1-one] registered an EC50 of over 5000 nM. The Emax in data set [1] (setting [6]) was 60%.

`CCCCc1ccc(/C=C/C(=O)c2cc[nH]c2)cc1` [Compound 30, 3-(4-butylphenyl)-1-(1H-pyrrol-3-yl)prop-2-en-1-one] returned a half-maximal effective concentration (EC50) in data set [1] (setting [4]) of 88.4 ± 24.9 nM. Moreover, the Emax in data set [1] (setting [6]) is 54 ± 29%.

As for `CCCCc1ccc(/C=C/C(=O)c2ccc[nH]2)cc1` [Compound 31, 3-(4-butylphenyl)-1-(1H-pyrrol-2-yl)prop-2-en-1-one], the EC50 in data set [1] (setting [4]) is 731 ± 686 nM. In data set [1] (setting [6]), the Emax is 45 ± 62%.

`CCCCCCC/C=C/C(=O)c1ccc[nH]1` [Compound 33, (E)-1-(1H-pyrrol-2-yl)dec-2-en-1-one] registered a concentration giving a half-maximal response (EC50) in data set [1] (setting [4]) of 288 ± 92 nM. Moreover, in data set [1] (setting [6]), the Emax turned out to be 109 ± 31%.

As to `O=C(Cc1ccc(-c2ccccc2)cc1)c1cc[nH]c1` [Compound 34, 2-([1,1′-biphenyl]-4-yl)-1-(1H-pyrrol-3-yl)ethanone], the “QS agonist potency (in words)” value in data set [1] is “essentially inactive”. The EC50 in data set [1] (setting [4]) is over 5000 nM. In addition, in data set [1] (setting [6]), the Emax worked out at 25%.

For the compound `O=C(Cc1ccc(-c2ccccc2)cc1)c1ccc[nH]1` [Compound 35, 2-([1,1′-biphenyl]-4-yl)-1-(1H-pyrrol-2-yl)ethanone], the “QS agonist potency (in words)” value in data set [1] was “essentially inactive”. In data set [1] (setting [4]), this compound displayed an EC50 of over 5000 nM. The Emax in data set [1] (setting [6]) was determined as 26%.

Consider `C/C=C(\N)C(=O)CCCCCCCCC` [Ea-CAI-1, (Z)-3-aminotridec-2-en-4-one, reference compound], for which, in data set [1], the “QS agonist potency (in words)” value was “low nM activity” and the “level of QS activation (in words)” value is reported as “full activation”. In addition, in data set [1] (setting [3]), the EC50 worked out at 4.1 nM. Further, the Emax in data set [1] (setting [5]) worked out at 100%. Moreover, in data set [1] (setting [6]), the Emax stood at 100 ± 6.6%.

The record behind these values is patent US9968587B2, “Heterocycle analogs of CAI-1 as agonists of quorum sensing in vibrio” (THE TRUSTEES OF PRINCETON UNIVERSITY, priority 2013, dated 2018).
